We go through 15 molecules from US20260317324A1, “BIFUNCTIONAL COMPOUNDS FOR DEGRADING BRAF VIA UBIQUITIN PROTEOSOME PATHWAY” (Nurix Therapeutics, Inc., priority 2023, published 2026).

This test has as its target T1, BRAF V600E (Homo sapiens, UniProt P15056, V600E).
T1 construct: endogenous C-terminal HiBiT fusion tag on BRAF V600E allele; endogenous in cells; host or cells: A375 clone 1F10 (CRISPR-Cas9 knock-in of the HiBiT tag; parental A375 from ATCC)
Briefly: BRAF HiBiT degradation assay, C-terminal HiBiT-tagged BRAF V600E A375 cells (clone 1F10), Nano-Glo HiBiT Lytic assay. It is filed as cell-based. As to conditions: for Dmax: A-375. The method, boiled down: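 Using CRISPR-engineered A375 cells that carry a C-terminal HiBiT tag on endogenous BRAF V600E, remaining protein was quantified by lytic luminescence relative to DMSO-treated cells, with wildtype A375 as the background control. DC50 denotes the concentration giving 50% degradation.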

Where [1] appears, read: A375 (BRAF V600E), DC50 at 50%: fitted conc. at Y=50.
The mark [2] stands for this setting: A375 (BRAF V600E), percentage protein degraded at maximal compound effect relative to DMSO.

T1 sequence (P15056 whole entry V600E, the tested form may be a part): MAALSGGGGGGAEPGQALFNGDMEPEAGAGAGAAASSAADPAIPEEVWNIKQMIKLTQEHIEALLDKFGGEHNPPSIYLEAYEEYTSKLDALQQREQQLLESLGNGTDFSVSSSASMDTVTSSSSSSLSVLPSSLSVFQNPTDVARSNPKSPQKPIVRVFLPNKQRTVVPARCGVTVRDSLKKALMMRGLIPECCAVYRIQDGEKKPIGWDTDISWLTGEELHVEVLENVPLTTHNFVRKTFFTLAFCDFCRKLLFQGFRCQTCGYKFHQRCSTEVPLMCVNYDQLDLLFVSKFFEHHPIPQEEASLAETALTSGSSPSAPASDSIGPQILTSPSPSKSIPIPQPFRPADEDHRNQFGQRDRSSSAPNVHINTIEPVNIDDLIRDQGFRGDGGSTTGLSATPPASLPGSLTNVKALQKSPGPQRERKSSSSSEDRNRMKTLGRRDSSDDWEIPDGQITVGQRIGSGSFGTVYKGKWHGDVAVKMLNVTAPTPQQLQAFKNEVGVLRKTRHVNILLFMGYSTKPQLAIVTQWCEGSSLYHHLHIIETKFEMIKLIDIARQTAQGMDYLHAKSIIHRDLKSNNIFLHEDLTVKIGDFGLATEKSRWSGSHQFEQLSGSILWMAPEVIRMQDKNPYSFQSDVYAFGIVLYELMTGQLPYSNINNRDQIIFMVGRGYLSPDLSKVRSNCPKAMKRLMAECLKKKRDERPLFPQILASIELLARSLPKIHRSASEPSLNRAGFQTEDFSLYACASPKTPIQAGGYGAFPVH

Take `CCCS(=O)(=O)Nc1cccc(-c2nc(C(C)(C)C)sc2-c2ccnc(Nc3cccc(OC4CCN(C(=O)C5CCN(c6ccc(C(=O)NC7CCC(=O)NC7=O)nc6)CC5)CC4)c3)n2)c1F` (racemic) [Compound 95, Rac-5-[4-(4-{3-[(4-{2-tert-butyl-4-[2-fluoro-3-(propane-1-sulfonamido)phenyl]-1,3-thiazol-5-yl}pyrimidin-2-yl)amino]phenoxy}piperidine-1-carbonyl)piperidin-1-yl]-N-[(3R)-2,6-dioxopiperidin-3-yl]pyridine-2-carboxamide]: under setting [1], the DC50 – broadly, the concentration at which degradation of the target reaches its halfway point – lay within 10 to 50 nM. For the same molecule, the Dmax – broadly, the largest share of the target that was removed – under setting [2] lay within 30 to 70%.

The molecule `CCCS(=O)(=O)Nc1cccc(-c2nc(C3CCC4(CC3)CCN(C(=O)CN3CCN(c5ccc6c(c5)C(=O)N(C5CCC(=O)NC5=O)C6=O)CC3)CC4)sc2-c2ccnc(N)n2)c1F` (racemic) [Compound 231, Rac-N-{3-[5-(2-aminopyrimidin-4-yl)-2-{3-[2-(4-{2-[(3R)-2,6-dioxopiperidin-3-yl]-1,3-dioxo-2,3-dihydro-1H-isoindol-5-yl}piperazin-1-yl)acetyl]-3-azaspiro[5.5]undecan-9-yl}-1,3-thiazol-4-yl]-2-fluorophenyl}propane-1-sulfonamide] gave a DC50 under setting [1] of under 10 nM. The Dmax under setting [2] lay in the range of 30 to 70%.

With `CCCS(=O)(=O)Nc1cccc(-c2nc(C(C)(C)C)sc2-c2ccnc(NC3CC4(C3)CN(C(=O)C3CCN(c5cccc6c5n(C)c(=O)n6C5CCC(=O)NC5=O)CC3)C4)n2)c1F` (racemic) [Compound 160, Rac-N-{3-[2-tert-butyl-5-(2-{[2-(1-{1-[(3R)-2,6-dioxopiperidin-3-yl]-3-methyl-2-oxo-2,3-dihydro-1H-1,3-benzodiazol-4-yl}piperidine-4-carbonyl)-2-azaspiro[3.3]heptan-6-yl]amino}pyrimidin-4-yl)-1,3-thiazol-4-yl]-2-fluorophenyl}propane-1-sulfonamide], under setting [2], the Dmax fell in the range of 30 to 70%.

For the molecule `CCCS(=O)(=O)Nc1cccc(-c2nc(C(C)(C)C3CCN(C(=O)CN4CCC5(CC4)CN(c4ccc6c(c4)C(=O)N(C4CCC(=O)NC4=O)C6=O)C5)CC3)sc2-c2ccnc(N)n2)c1F` (racemic) [Compound 240, Rac-N-{3-[5-(2-aminopyrimidin-4-yl)-2-(2-{1-[2-(2-{2-[(3R)-2,6-dioxopiperidin-3-yl]-1,3-dioxo-2,3-dihydro-1H-isoindol-5-yl}-2,7-diazaspiro[3.5]nonan-7-yl)acetyl]piperidin-4-yl}propan-2-yl)-1,3-thiazol-4-yl]-2-fluorophenyl}propane-1-sulfonamide], the DC50 under setting [1] was over 500 nM. Under setting [2], this molecule registered a maximal degradation (Dmax) of 30 to 70%.

With `CCCS(=O)(=O)Nc1cccc(-c2nc(C3(C)CCN(C(=O)CN4CCN(c5ccc6c(c5)C(=O)N(C5CCC(=O)NC5=O)C6=O)CC4)CC3)sc2-c2ccnc(N)n2)c1F` (racemic) [Compound 232, Rac-N-{3-[5-(2-aminopyrimidin-4-yl)-2-{1-[2-(4-{2-[(3R)-2,6-dioxopiperidin-3-yl]-1,3-dioxo-2,3-dihydro-1H-isoindol-5-yl}piperazin-1-yl)acetyl]-4-methylpiperidin-4-yl}-1,3-thiazol-4-yl]-2-fluorophenyl}propane-1-sulfonamide], under setting [1], the 50% degradation concentration (DC50) was in the range of 50 to 500 nM. For the same molecule, under setting [2], the Dmax lay within 30 to 70%.

The molecule `CCCS(=O)(=O)Nc1cccc(-c2nc(C3CCN(CC4CCN(C(=O)[C@H]5CC[C@H](Oc6cccc(C7CCC(=O)NC7=O)c6)CC5)CC4)CC3)sc2-c2ccnc(N)n2)c1F` (mixture of isomers) [Compound 223, N-{3-[5-(2-aminopyrimidin-4-yl)-2-[1-({1-[(1r,4r)-4-{3-[(3RS)-2,6-dioxopiperidin-3-yl]phenoxy}cyclohexanecarbonyl]piperidin-4-yl}methyl)piperidin-4-yl]-1,3-thiazol-4-yl]-2-fluorophenyl}propane-1-sulfonamide] returned a half-maximal degradation concentration (DC50) under setting [1] of 50 to 500 nM. Also, under setting [2], the Dmax lay in the range of 30 to 70%.

Consider `CCCS(=O)(=O)Nc1cccc(-c2nc(-c3ccc(N4CCN(C(=O)C5CCN(c6ccc(C7CCC(=O)NC7=O)cc6)CC5)CC4)cc3)sc2-c2ccnc(N)n2)c1F` (racemic) [Compound 190, Rac-N-{3-[5-(2-aminopyrimidin-4-yl)-2-{4-[4-(1-{4-[(3R)-2,6-dioxopiperidin-3-yl]phenyl}piperidine-4-carbonyl)piperazin-1-yl]phenyl}-1,3-thiazol-4-yl]-2-fluorophenyl}propane-1-sulfonamide], for which, under setting [1], the DC50 lay within 10 to 50 nM. For the same molecule, the Dmax under setting [2] was 30 to 70%.

On to `CCCS(=O)(=O)Nc1cccc(-c2nc(C(C)(C)C)sc2-c2ccnc(Nc3cccc(C4CCN(CC5(C)CCN(c6ccc(C7CCC(=O)NC7=O)cn6)CC5)CC4)c3)n2)c1F` (racemic) [Compound 73, Rac-N-[3-(2-tert-butyl-5-{2-[(3-{1-[(1-{5-[(3R)-2,6-dioxopiperidin-3-yl]pyridin-2-yl}-4-methylpiperidin-4-yl)methyl]piperidin-4-yl}phenyl)amino]pyrimidin-4-yl}-1,3-thiazol-4-yl)-2-fluorophenyl]propane-1-sulfonamide], for which the 50% degradation concentration (DC50) under setting [1] lay within 50 to 500 nM. Also, the maximal degradation (Dmax) under setting [2] was in the range of 30 to 70%.

Regarding `CCCS(=O)(=O)Nc1cccc(-c2cn(-c3ccc(C(=O)N4CCN(CC5CCN(c6ccc([C@H]7CCC(=O)NC7=O)cc6)CC5)CC4)cc3)nc2-c2ccncc2)c1F` [Compound 11, N-{3-[1-(4-{4-[(1-{4-[(3R)-2,6-dioxopiperidin-3-yl]phenyl}piperidin-4-yl)methyl]piperazine-1-carbonyl}phenyl)-3-(pyridin-4-yl)-1H-pyrazol-4-yl]-2-fluorophenyl}propane-1-sulfonamide], under setting [1], the DC50 fell in the range of 50 to 500 nM. Further, the Dmax under setting [2] lay in the range of 30 to 70%.

Molecule `O=C1CC[C@H](c2ccc(N3CCC(CN4CCN(c5cnc(-n6cc(-c7cc(F)cc(NS(=O)(=O)N8CCCC8)c7F)c(-c7ccncc7)n6)nc5)CC4)CC3)cc2)C(=O)N1` [Compound 342, N-{3-[1-(5-{4-[(1-{4-[(3R)-2,6-dioxopiperidin-3-yl]phenyl}piperidin-4-yl)methyl]piperazin-1-yl}pyrimidin-2-yl)-3-(pyridin-4-yl)-1H-pyrazol-4-yl]-2,5-difluorophenyl}pyrrolidine-1-sulfonamide] yielded a DC50 (A375 (BRAF V600E, Class 1), DC50 at 50% degradation) of under 10 nM. In addition, the Dmax (A375 (BRAF V600E, Class 1), observed Dmax, % protein degraded relative to DMSO control) was over 70%.

With `CCCS(=O)(=O)Nc1cccc(-c2nc(C)sc2-c2ccnc(Nc3ccc(N4CCN(CC5(C)CCN(c6ccc(C7CCC(=O)NC7=O)cn6)CC5)CC4)cc3)n2)c1F` (racemic) [Compound 32, Rac-N-[3-(5-{2-[(4-{4-[(1-{5-[(3R)-2,6-dioxopiperidin-3-yl]pyridin-2-yl}-4-methylpiperidin-4-yl)methyl]piperazin-1-yl}phenyl)amino]pyrimidin-4-yl}-2-methyl-1,3-thiazol-4-yl)-2-fluorophenyl]propane-1-sulfonamide], under setting [1], the DC50 was under 10 nM. Besides, under setting [2], the Dmax is over 70%.

Molecule `CCCS(=O)(=O)Nc1cccc(-c2nc(C(C)(C)C)sc2-c2ccnc(Nc3ccc(C4CCN(C(=O)C5CCN(c6cccc7c6n(C)c(=O)n7C6CCC(=O)NC6=O)CC5)CC4)cc3)n2)c1F` (racemic) [Compound 161, Rac-N-(3-{2-tert-butyl-5-[2-({4-[1-(1-{1-[(3R)-2,6-dioxopiperidin-3-yl]-3-methyl-2-oxo-2,3-dihydro-1H-1,3-benzodiazol-4-yl}piperidine-4-carbonyl)piperidin-4-yl]phenyl}amino)pyrimidin-4-yl]-1,3-thiazol-4-yl}-2-fluorophenyl)propane-1-sulfonamide] returned a DC50 under setting [1] of 10 to 50 nM. This molecule also showed a Dmax under setting [2] of 30 to 70%.

Molecule `CCCS(=O)(=O)Nc1cccc(-c2nc(C(C)(C)C)sc2-c2ccnc(Nc3ccc(N4CCN(CC5CCN(c6ccc([C@@H]7CCC(=O)NC7=O)cc6)CC5)CC4)c(F)c3)n2)c1F` [Compound 88, N-[3-(2-tert-butyl-5-{2-[(4-{4-[(1-{4-[(3S)-2,6-dioxopiperidin-3-yl]phenyl}piperidin-4-yl)methyl]piperazin-1-yl}-3-fluorophenyl)amino]pyrimidin-4-yl}-1,3-thiazol-4-yl)-2-fluorophenyl]propane-1-sulfonamide] came in with a DC50 under setting [1] of 10 to 50 nM. Under setting [2], the Dmax is 30 to 70%.

As to `CCCS(=O)(=O)Nc1cccc(-c2nc(C(C)(C)C)sc2-c2ccnc(Nc3ccc(C4CCN(CC5CCN(c6ccc(C(=O)NC7CCC(=O)NC7=O)nc6)CC5)CC4)cc3)n2)c1F` (racemic) [Compound 169, Rac-5-{4-[(4-{4-[(4-{2-tert-butyl-4-[2-fluoro-3-(propane-1-sulfonamido)phenyl]-1,3-thiazol-5-yl}pyrimidin-2-yl)amino]phenyl}piperidin-1-yl)methyl]piperidin-1-yl}-N-[(3R)-2,6-dioxopiperidin-3-yl]pyridine-2-carboxamide], the DC50 under setting [1] was in the range of 50 to 500 nM. Moreover, under setting [2], the maximal degradation (Dmax) is 30 to 70%.

Under setting [1], `CCCS(=O)(=O)Nc1cccc(-c2nc(C(C)(C)C)sc2-c2ccnc(NC3CC4(C3)CN(CC[C@H]3CCN(c5ccc(C6CCC(=O)NC6=O)cn5)C3)C4)n2)c1F` (mixture of isomers) [Compound 172, N-[3-(2-tert-butyl-5-{2-[(2-{2-[(3S)-1-{5-[(3RS)-2,6-dioxopiperidin-3-yl]pyridin-2-yl}pyrrolidin-3-yl]ethyl}-2-azaspiro[3.3]heptan-6-yl)amino]pyrimidin-4-yl}-1,3-thiazol-4-yl)-2-fluorophenyl]propane-1-sulfonamide] displayed a DC50 of 50 to 500 nM. The molecule further returned a Dmax under setting [2] of 30 to 70%.
